Data published in US20230263786A1, “MODULATION OF DRUG-DRUG INTERACTIONS OF VADADUSTAT” (Akebia Therapeutics, Inc., priority 2020, published 2023).
Values belong to the compound of their own block, whether it stands above or below them.

Key:
[1] = Phase I ferrous sulfate tablet interaction study; details: for Metabolite Ratio AUC(0-t) / Metabolite Ratio Cmax: Metabolite/Parent; for AUC(0-t) / Cmax / Tmax: metabolite in plasma; for AUC(0-t) / Cmax: mean; for Tmax: median;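 as to all read-outs here: crossover in fasted human subjects with four-day washout between periods, plasma glucuronide metabolite pharmacokinetics, ratios computed as metabolite over parent for AUC and Cmax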
Experimental: Pharmacokinetics. […] The ratio of metabolite to parent was calculated for each glucuronide metabolite for AUC(0-t); and AUC(0-inf) and Cmax.
Comparative Bioavailability. […] Factors incorporated in the model included: Sequence, Subject (Sequence), Period, and Treatment.
Treatment of Subjects. […] All subjects are dosed on the same day for Day 1 of Confinement Period 1, and are crossed over to the alternate treatment and are dosed on the same day for Day 1 of Confinement Period 2. Both treatments are administered in a fasted state, and a four-day Washout Period separates each Confinement Period.

[2] = Phase I interaction study Part 2 Arm 1: sulfasalazine; assay type: in vivo, human; details: for AUC(0-inf) / Cmax / AUC(0-t): both sexes, 500 mg
Experimental: The study included 3 periods as follow: • Screening: performed within 28 days prior to dosing on Day 1. • Treatment period: […] In Part 2 (Arm 1): For each dose of sulfasalazine administered, blood samples for PK analysis were collected at the following timepoints: pre-dose, 0.5, 1, 2, 3, 4, 5, 6, 8, 12, 18, 24, 36, 48, 60, 72 and 96 hours postdose. […] Arm 1 (sulfasalazine): 26 subjects were treated with the study drug. On the morning of Day 1, subjects received a single oral dose of sulfasalazine 500 mg after at least a 10-hour overnight fast. Subjects would remain fasted for approximately 4 hours after dosing. Following a 5-day washout period (Days 1-5) subjects received vadadustat 600 mg once daily beginning on Day 6 for 7 days (Days 6-12). […] On Day 9, subjects received their morning dose of vadadustat 600 mg along with a single oral dose of sulfasalazine 500 mg after at least a 10-hour overnight fast. Subjects would remain fasted for at least 4 hours after dosing. Subjects were discharged from the clinical research unit on the morning of Day 13.

[3] = Phase I interaction study Part 1: rosuvastatin; assay type: in vivo, human; details: for AUC(0-inf) / AUC(0-t) / Cmax: both sexes, human, plasma, oral; for AUC(0-inf): read-out: AUC0-inf, Geometric LSM; for AUC(0-t): read-out: AUC0-last, Geometric LSM; for Cmax: read-out: Cmax, Geometric LSM
Experimental: In Part 1, 34 subjects were treated with the study drug. On the morning of Day 1, subjects received a single oral dose of rosuvastatin 20 mg after at least a 10-hour overnight fast. Subjects would remain fasted for at least 4 hours after dosing. […] When administered alone, vadadustat would be administered in the morning at least 30 minutes prior to breakfast. On Day 10, subjects received their morning dose of vadadustat 600 mg along with a single oral dose of rosuvastatin 20 mg after at least a 10-hour overnight fast. Subjects would remain fasted for at least 4 hours after dosing. Subjects were discharged from the clinical research unit (CRU) on the morning of Day 15.

[4] = Phase I interaction study Part 3 Arm 1: atorvastatin; assay type: in vivo, human
Source text: Subjects were discharged from the clinical research unit on the morning of Day 9.

[5] = treatment Compound 1 450 mg alone
[6] = Rosuvastatin 20 mg, Compound 1 600 mg
[7] = Treatment R + V: rosuvastatin 20 mg + vadadustat 600 mg QD
[8] = Treatment R: rosuvastatin 20 mg alone
[9] = rosuvastatin 20 mg, vadadustat 600 mg QD
[10] = Atorvastatin 40 mg, Compound 1 600 mg
[11] = atorvastatin 40 mg QD, vadadustat 600 mg QD

Metabolite Ratio AUC(0-t) ([1]; treatment Compound 1 + Iron): 0.000458 | Metabolite Ratio Cmax ([1]; treatment Compound 1 + Iron): 0.000909 | Metabolite Ratio AUC(0-t) ([1]; treatment Compound 1 alone): 0.00543 | Metabolite Ratio Cmax ([1]; treatment Compound 1 alone): 0.00112 | AUC(0-t) [1, 5]: 208 ng·h/mL | Cmax [1, 5]: 82.6 ng/mL | Tmax [1, 5]: 1.75 h | AUC(0-t) ([1]; treatment Compound 1 + Iron): 86.4 ng·h/mL | Cmax ([1]; treatment Compound 1 + Iron): 32.2 ng/mL | Tmax ([1]; treatment Compound 1 + Iron): 3.0 h
SMILES: O=C(CNC(=O)c1ncc(-c2cccc(Cl)c2)cc1O)O[C@@H]1O[C@H](C(=O)O)[C@@H](O)[C@H](O)[C@H]1O [Compound 1-acyl-glucuronide]

AUC(0-inf) ([2]; human, in vivo): 82700 ng·h/mL | AUC(0-t) ([2]; human, in vivo): 82200 ng·h/mL | Cmax ([2]; human, in vivo): 9700 ng/mL | increase of systemic exposure ([2]; both, human, in vivo): up to 4.5 fold
SMILES: O=C(O)c1cc(/N=N/c2ccc(S(=O)(=O)Nc3ccccn3)cc2)ccc1O [Sulfasalazine, sulfasalazine, reference compound]

AUC0-∞, Ratio of geometric mean value Combined/alone [4, 10]: 167.57% | Cmax, Ratio of geometric mean value Combined/alone [4, 10]: 230.48% | AUCtau, Geometric LSM Ratio (A + V/A) [4, 11]: 175.60% | Cmax, Geometric LSM Ratio (A + V/A) [4, 11]: 230.48% | AUC ([4]; both sexes, human, plasma, oral, 40 mg, heading: AUCtau, Geometric LSM): 8.92 ng·h/mL | Cmax ([4]; both sexes, human, plasma, oral, 40 mg, read-out: Cmax, Geometric LSM): 0.62 ng/mL
SMILES: CC(C)c1c(C(=O)Nc2ccc(O)cc2)c(-c2ccccc2)c(-c2ccc(F)cc2)n1CC[C@@H](O)C[C@@H](O)CC(=O)O [p-hydroxy atorvastatin, (3R,5R)-7-[2-(4-fluorophenyl)-4-[(4-hydroxyphenyl)carbamoyl]-3-phenyl-5-propan-2-ylpyrrol-1-yl]-3,5-dihydroxyheptanoic acid]

More lines, now with the values behind:

SMILES: Nc1ccc(O)c(C(=O)O)c1 [Mesalamine, mesalamine]
AUC0-last, Geometric LSM ([2]; Treatment S: sulfasalazine 500 mg alone): 220 ng·h/mL | AUC(0-inf) ([2]; human, in vivo): 247 ng·h/mL | Cmax ([2]; human, in vivo): 22 ng/mL

SMILES: CC(C)c1nc(N(C)S(C)(=O)=O)nc(-c2ccc(F)cc2)c1/C=C/[C@@H](O)C[C@@H](O)CC(=O)O [Rosuvastatin, rosuvastatin]
AUC0-∞, Ratio of geometric mean value Combined/alone [3, 6]: 246.86% | Cmax, Ratio of geometric mean value Combined/alone [3, 6]: 274.80% | AUC(0-inf) [3, 7]: 254 ng·h/mL | AUC(0-t) [3, 7]: 249 ng·h/mL | Cmax [3, 7]: 27.9 ng/mL | AUC(0-inf) [3, 8]: 103 ng·h/mL | AUC(0-t) [3, 8]: 98.4 ng·h/mL | Cmax [3, 8]: 10.2 ng/mL | AUC0-inf, Geometric LSM Ratio (R + V/R) [3, 9]: 246.86% | AUC0-last, Geometric LSM Ratio (R + V/R) [3, 9]: 252.86% | Cmax, Geometric LSM Ratio (R + V/R) [3, 9]: 274.80%

SMILES: Nc1ccc(S(=O)(=O)Nc2ccccn2)cc1 [Sulfapyridine, sulfapyridine]
AUC(0-inf) ([2]; human, in vivo): 42800 ng·h/mL | AUC(0-t) ([2]; human, in vivo): 42400 ng·h/mL | Cmax ([2]; human, in vivo): 2580 ng/mL
